Measurements from paper PMC9688808, “Discovery of Novel Lin28 Inhibitors to Suppress Cancer Cell Stemness” (Cancers, 2022).

Tests used:
Lin28B ZKD = target: T1, Lin28B ZKD (Homo sapiens, UniProt Q6ZN17); test: Fluorescence polarization (FP) assay, Lin28B ZKD with FAM-labeled Let-7 probe; type: binding; conditions: for IC50: 10 uM Lin28B ZKD, 1 nM FAM-labeled Let-7 probe, 1 nM–1000 uM compound
T1 construct: His-tagged human Lin28B ZKD (aa110-174); His-tag; made in house; host or cells: Escherichia coli BL21
T1 sequence (Q6ZN17 110-174): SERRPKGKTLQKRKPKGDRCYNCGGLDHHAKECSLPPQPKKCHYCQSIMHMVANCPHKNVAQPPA
Source text: ZINC compounds were purchased from Enamine (Kyiv, Ukraine), Life Chemicals Ltd. (Kyiv, Ukraine), or Princeton Biomolecular Research (Princeton, NJ, USA) with >90% purity. Upon receiving the compounds, the molecular masses were validated by LC/MS/MS. His-tagged human Lin28B ZKD (aa110-174), Lin28B CSD+ZKD (aa7-204), and Lin28A ZKD (aa121-187) were expressed in Escherichia coli BL21 cells and purified by immobilized metal ion affinity chromatography (IMAC) with nickel nitrilotriacetic acid (NiNTA) resin and size exclusion chromatography (s75 10/300 GL) as we have previously reported.
The fluorescein amidites (FAM)-tagged Let-7 probe with the sequence of […] was purchased from Integrated DNA Technologies (IDT). The probe at the concentrations ranging from 1 nM to 50 uM was incubated with Lin28B (ZKD) or Lin28 (CSD+ZKD) to a final volume of 30 uL at room temperature for 20 min. To read the fluorescence, a TECAN 500 machine was used. Fluorescence polarization was calculated using the following equation: P=Fparrallel−Fperpendicular/Fparrallel+Fperpendicular where P is the fluorescence polarization reading, F parallel is the fluorescence intensity acquired from the parallel excitation plane, and F perpendicular is the fluorescence intensity acquired from the perpendicular direction of the excitation plane. The total fluorescence intensity is estimated using the following equation: F=Fparallel+2Fperpendicular
All the raw FP signal data from the TECAN 500 FP results were analyzed using Prism 8.0 (GraphPad, San Diego, CA, USA); normalized curves were plotted and IC50 values were estimated. All FP data were repeated three to five times.
To test the predicted compounds by CADD, we established an FP assay using both Lin28B ZKD and Lin28B CSD+ZKD to be incubated with a FAM-labeled Let-7 oligo containing the GGAG motif. To validate that the signals obtained from FP assays reflect the interaction between Lin28 and Let-7, we have tested: (1) 1 nM–50 uM FAM-labeled Let-7 probes with 10 uM Lin28 proteins and observed a dose-dependent reduction of FP signal; (2) 1 nM FAM labeled Let-7 probes with 1 nM–50 uM Lin28 proteins and observed a dose-dependent increase of FP signal; (3) 1 nM–50 uM doses of non-labeled Let-7 oligo to be incubated with 1 nM FAM probe and 10 uM Lin28 proteins, and observed a dose-dependent reduction of FP signal (Figure 2A,B).
Figure 2 Establishment of the Fluorescence Polarization Assay and Initial compound screening. (A) Graphical representation of the FP assay principle. As the labeled probe floats freely in the solution, it rotates more rapidly, producing a low FP signal. When the labeled probe binds to proteins, it rotates slower and produces a high FP signal. (B) In FP assays, probe titration was performed by using 10 uM protein with […] FAM-labeled Let-7 probe (n = 9 replicates). Protein titration was performed by using 1 nM of FAM-labeled Let-7 probe with 1 nM–50 uM Lin28B ZKD protein (n = 9 replicates), and competition titration using 1 nM–50 µM non-labeled Let-7 probe with 10 uM of Lin28B ZKD protein with 1 nM FAM-labeled Let-7 probe (9 replicates). (C) FP assays were used to screen 163 compounds at the concentration of 20 uM using 1 nM of FAM-labeled Let-7 probe with 10 uM Lin28B ZKD protein.
Figure 3 Lin28 inhibitors block the interaction between Lin28B ZKD and Let-7. […]

DUNE cells [1] = test: Real-time qPCR of CSC and neuroendocrine biomarkers in DUNE cells; type: cell-based; conditions: 20 uM, 48 h
Protocol: (§1) There are several standard molecular techniques, including real-time qPCR, flow cytometry, cell proliferation, colony formation, and immunoblotting assays, that have been reported previously by our lab.
Figure 6 Lin28 inhibitors block the expression of NE and CSC biomarkers. DUNE cells were treated with 20 uM of the indicated compound for 48 h. Real-time qPCR measured RNA levels of neuroendocrine (A) and CSC (B) biomarkers. Three biological replicates were performed and all results are presented as mean +/− SD. p-value ≤ 0.05—(*); ≤0.01—(**); ≤0.001—(***).

DUNE cells [2] = test: Immunoblotting in DUNE cells; type: cell-based; conditions: 20uM, 24 hours, immunoblot
Protocol: as §1
Figure S2. DUNE cells were treated with 20uM of indicated compounds for 24 hours. Protein lyses were collected and immunoblotted with Vinculin, SOX2, and HMGA2 antibodies. […]
Figure S3. DUNE or DUNE(KO) cells were treated with 20uM of indicated compounds for 24 hours. Protein lyses were collected and immunoblotted with Lin28b, SYP, CD44, and CD133 antibodies. Beta-actin was used as the loading control. […]

DUNE cells [3] = test: FACS analysis of CD44 and CD133 positive cell populations; type: cell-based; conditions: 20 uM, 48 h; for % of CD133+ cells: paired vehicle 60.8–65.4; for % CD44+ cells: paired vehicle 84.7–94.9
Protocol: as §1
Figure 7 Lin28 inhibitors block CSC phenotypes of cancer cells. (A) FACS analysis using CD44 and CD133 antibodies detected CSC cell populations from DUNE or DUNE (KO) cells treated with either vehicle or 20 uM of Ln7, Ln15, and Ln115 for 48 h. (B) DUNE, DUNE (KO), and IGROV1 cell proliferation were measured in the presence of 20 uM of Ln7, Ln15, and Ln115. (C) Colony formation assays (colonies >[…] were counted) measured the suppressive effects of Ln7, Ln15, and Ln115 at the concentration of 20 uM. p-value ≤ 0.01—(**); ≤0.001—(***).

[4] = design: method as in PMID 29874593; conditions: cited from earlier work
[5] = design: method as in PMID 29874593; conditions: at high uM concentrations; cited from earlier work

CC(=O)N(C)c1cccc(-c2ccc3nnc(C)n3n2)c1 [compound 1632, reference compound]
maximum inhibition in FP assay (Lin28B ZKD; Lin28B ZKD titration): ≤ 50%
expression of CSC markers (IGF2BP1, CDH2, FOXD3, HEY1, ALDH1A2, CDK6, FOXC1, SIX2, ID4) (DUNE cells [1]): variable mild inhibitory effects or no inhibition

O=c1cccc(-c2nc3cc(F)c(O)cc3c(=O)[nH]2)[nH]1 [Ln115]
IC50 (Lin28B ZKD): ~21 µM
protein expression of SYP (DUNE cells [2]): suppressed
expression of CSC markers (IGF2BP1, CDH2, FOXD3, HEY1, ALDH1A2, CDK6, FOXC1, SIX2, ID4) (DUNE cells [1]): reductions
expression of neuroendocrine markers (ASCL1, CHGB, SCGN, SYP, STT4) (DUNE cells [1]): blocked
suppression of CDH2 expression (DUNE cells [1]): up to 90%
suppression of FOXD3 expression (DUNE cells [1]): up to 90%
CD44- and CD133-positive cell populations (DUNE cells [3]): significant reductions
% of CD133+ cells (DUNE cells [3]): 30 ± 4.5%
% CD44+ cells (DUNE cells [3]): 54.3 ± 6.0%

O=c1[nH]c(Nc2ccccc2O)cs1 [Ln15]
IC50 (Lin28B ZKD): ~9 µM
protein expression of SYP (DUNE cells [2]): suppressed
expression of CSC markers (IGF2BP1, CDH2, FOXD3, HEY1, ALDH1A2, CDK6, FOXC1, SIX2, ID4) (DUNE cells [1]): reductions
expression of neuroendocrine markers (ASCL1, CHGB, SCGN, SYP, STT4) (DUNE cells [1]): blocked
CD44- and CD133-positive cell populations (DUNE cells [3]): significant reductions
% of CD133+ cells (DUNE cells [3]): 14.7 ± 2.1%
% CD44+ cells (DUNE cells [3]): 70.1 ± 4.6%

CCOc1cccc2c1N[C@@H](c1ccc(C(=O)O)cc1)[C@H]1CC=C[C@@H]21 [Li71, reference compound]
IC50 (Lin28B ZKD): 55 µM
expression of CSC markers (IGF2BP1, CDH2, FOXD3, HEY1, ALDH1A2, CDK6, FOXC1, SIX2, ID4) (DUNE cells [1]): variable mild inhibitory effects or no inhibition
solubility [4]: high solubility
cellular toxicity [5]: low cellular toxicity

CCc1cc(=O)[nH]c(Nc2cc(Cl)ccc2O)n1 [Ln7]
IC50 (Lin28B ZKD): ~45 µM
expression of CSC markers (IGF2BP1, CDH2, FOXD3, HEY1, ALDH1A2, CDK6, FOXC1, SIX2, ID4) (DUNE cells [1]): reductions
expression of neuroendocrine markers (ASCL1, CHGB, SCGN, SYP, STT4) (DUNE cells [1]): blocked
CD44- and CD133-positive cell populations (DUNE cells [3]): significant reductions
% of CD133+ cells (DUNE cells [3]): 37.1 ± 4.2%
% CD44+ cells (DUNE cells [3]): 61.6 ± 3.2%
